The target of this test is T1, soluble guanylate cyclase (human GUCYA3/GUCYB3) overexpressed in CHO cells (Homo sapiens, UniProt Q02108+Q02153).
T1 construct: expressed in transfected cells
T1 sequence (Q02108 1-690 partner): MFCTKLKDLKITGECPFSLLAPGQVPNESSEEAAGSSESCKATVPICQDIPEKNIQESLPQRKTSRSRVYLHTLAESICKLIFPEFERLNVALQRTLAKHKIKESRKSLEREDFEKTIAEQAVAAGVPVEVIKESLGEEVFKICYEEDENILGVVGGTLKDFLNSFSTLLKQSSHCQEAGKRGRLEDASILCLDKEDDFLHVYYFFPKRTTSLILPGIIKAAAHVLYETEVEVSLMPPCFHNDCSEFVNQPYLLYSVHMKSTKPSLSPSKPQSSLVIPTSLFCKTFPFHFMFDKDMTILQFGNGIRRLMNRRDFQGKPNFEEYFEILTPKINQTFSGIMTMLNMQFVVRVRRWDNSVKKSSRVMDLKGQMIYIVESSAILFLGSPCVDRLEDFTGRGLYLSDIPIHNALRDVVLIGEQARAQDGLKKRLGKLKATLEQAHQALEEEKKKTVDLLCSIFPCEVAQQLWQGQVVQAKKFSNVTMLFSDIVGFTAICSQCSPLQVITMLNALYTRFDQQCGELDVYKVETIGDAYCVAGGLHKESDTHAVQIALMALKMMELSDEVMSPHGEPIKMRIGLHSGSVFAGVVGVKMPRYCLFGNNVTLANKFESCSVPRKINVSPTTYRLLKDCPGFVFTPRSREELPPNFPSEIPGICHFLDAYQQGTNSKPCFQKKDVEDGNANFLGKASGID
T1 sequence (Q02153 1-619): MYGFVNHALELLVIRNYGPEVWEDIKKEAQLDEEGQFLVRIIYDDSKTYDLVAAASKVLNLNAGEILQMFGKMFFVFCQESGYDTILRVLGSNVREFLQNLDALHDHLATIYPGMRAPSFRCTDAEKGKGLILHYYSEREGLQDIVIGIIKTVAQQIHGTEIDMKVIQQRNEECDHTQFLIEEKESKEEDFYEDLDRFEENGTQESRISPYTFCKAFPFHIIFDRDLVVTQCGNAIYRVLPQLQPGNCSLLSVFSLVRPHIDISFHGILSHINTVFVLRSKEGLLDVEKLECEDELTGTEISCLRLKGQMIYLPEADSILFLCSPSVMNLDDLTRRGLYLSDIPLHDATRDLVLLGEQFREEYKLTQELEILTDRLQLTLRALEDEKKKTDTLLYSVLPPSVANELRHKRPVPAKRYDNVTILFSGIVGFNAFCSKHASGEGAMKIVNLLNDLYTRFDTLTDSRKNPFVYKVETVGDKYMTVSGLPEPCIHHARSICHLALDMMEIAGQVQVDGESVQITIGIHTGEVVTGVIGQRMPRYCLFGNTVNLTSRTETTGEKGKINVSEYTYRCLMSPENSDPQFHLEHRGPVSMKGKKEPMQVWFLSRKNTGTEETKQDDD
Nature of the test: CHO cellular assay (cGMP production, HTRF). The settings on record: CHO K1 clone 8E10 overexpressing human sGC, Cisbio HTRF, 1 h room temperature, 1 mM IBMX, 20 uM ODQ, minimum quantification limit 0.5 nM. It is filed as cell-based. Summed up:
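Stable CHO K1 clone expressing human GUCYA3/GUCYB3. Compounds applied 1 h at room temperature in HBSS, 0.1% BSA, 1 mM IBMX, 20 uM ODQ, 0.5% DMSO. cGMP measured by HTRF and interpolated from a standard curve; EC50 from 4-parameter sigmoidal fit.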

As to `CCc1nc(OCc2cc(C)sc2-c2cccc(-n3ncc(C(=O)O)c3C(F)(F)F)n2)ccc1C1CCN(C(=O)C2CC2)CC1` [Example 39, 1-(6-(3-(((5-(1-(Cyclopropanecarbonyl)piperidin-4-yl)-6-ethylpyridin-2-yl)oxy)methyl)-5-methylthiophen-2-yl)pyridin-2-yl)-5-(trifluoromethyl)-1H-pyrazole-4-carboxylic acid], the EC50 was 1 nM.

In turn, `Cc1cc(C2CCN(CC(F)(F)F)CC2)ccc1OCc1cc(C(C)C)sc1-c1cccc(-n2ncc(C(=O)O)c2C(F)(F)F)n1` [Example 40, 1-(6-(5-Isopropyl-3-((2-methyl-4-(1-(2,2,2-trifluoroethyl)piperidin-4-yl)phenoxy)methyl)thiophen-2-yl)pyridin-2-yl)-5-(trifluoromethyl)-1H-pyrazole-4-carboxylic acid] yielded an EC50 of 370 nM.

`CCCc1cc(COc2ccc(C3CCN(CC(F)(F)F)CC3)cc2C)c(-c2cccc(-n3ncc(C(=O)O)c3C(F)(F)F)n2)s1` [Example 41, 1-(6-(3-((2-Methyl-4-(1-(2,2,2-trifluoroethyl)piperidin-4-yl)phenoxy)methyl)-5-propylthiophen-2-yl)pyridin-2-yl)-5-(trifluoromethyl)-1H-pyrazole-4-carboxylic acid] came in with an EC50 of 428 nM.

Regarding `Cc1cc(C2CCN(C(=O)C3CNC3)CC2)ccc1OCc1ccsc1-c1cccc(-n2ncc(C(=O)O)c2C(F)(F)F)n1` [Example 43, 1-(6-(3-((4-(1-(Azetidine-3-carbonyl)piperidin-4-yl)-2-methylphenoxy)methyl)thiophen-2-yl)pyridin-2-yl)-5-(trifluoromethyl)-1H-pyrazole-4-carboxylic acid], the EC50 was 887 nM.

In turn, `CCc1c(C(=O)O)cnn1-c1cccc(-c2sc(C)cc2CCc2ccc(C3CCN(C(=O)C4CC4)CC3)cc2C)n1` [Example 45, 1-(6-(3-(4-(1-(Cyclopropanecarbonyl)piperidin-4-yl)-2-methylphenethyl)-5-methylthiophen-2-yl)pyridin-2-yl)-5-ethyl-1H-pyrazole-4-carboxylic acid] returned an EC50 of at most 0.5 nM.

`Cc1cc(CCc2ccc(C3CCN(C(=O)OC(C)(C)C)CC3)cc2C)c(-c2cccc(-n3ncc(C(=O)O)c3C(F)(F)F)n2)s1` [Example 46, 1-(6-(3-(4-(1-(tert-Butoxycarbonyl)piperidin-4-yl)-2-methylphenethyl)-5-methylthiophen-2-yl)pyridin-2-yl)-5-(trifluoromethyl)-1H-pyrazole-4-carboxylic acid] displayed an EC50 of 3 nM.

The values are drawn from patent US9765067B2, “Thiophen-2-yl-pyridin-2-yl-1H-pyrazole-4-carboxylic acid derivatives and the use thereof as soluble guanylate cyclase activators” (Novartis AG, priority 2014, dated 2017).
